In patent US20240424118A1, “VECTORS TARGETING BETA-D-N-ACETYLGLUCOSAMINIDASE” (CENTRE NATIONAL DE LA RECHERCHE SCIENTIFIQUE, priority 2021, published 2024):

Experiments:
MDA-MB-231 tumor line = test: Antiproliferative activity (cell viability) on MDA-MB-231 tumor line, with or without β-N-acetylglucosaminidase; format: cell-based, human; details: MDA-MB-231 cells, 72 hours of incubation
Description: (§1) The curves with the circles correspond to MMAE, the curves with the squares correspond to vector 80 and the curves with the triangles correspond to vector 80 in the presence of GlcNase.
(§2) The antiproliferative activity of vector 80 was evaluated on human KB and MDA-MB-231 tumor lines and compared to that of MMAE. To do this, compound 80 was placed in the culture medium in the absence or presence of β-N-acetylglucosaminidase and cell viability was measured after 72 hours of incubation (FIG. 1).

KB tumor line = test: Antiproliferative activity (cell viability) on KB tumor line, with or without β-N-acetylglucosaminidase; format: cell-based, human; details: KB cells, 72 hours of incubation
Description: as §1, §2

[1] = system: MDA-MB-231 orthotopic tumors; test: Therapeutic efficacy on MDA-MB-231 orthotopic triple negative breast tumor model in mice; format: in vivo
Description: The vectors were administered on days 21, 35 and 49. Each point corresponds to the average of the tumor volumes±SEM. The curves with the triangles correspond to the vehicle and the curves with the squares correspond to the vector 80.
The therapeutic efficacy of vector 80 was evaluated in mice, on a triple negative breast tumor model of the MDA-MB-231 type (FIG. 2). Compound 80 was administered three times, with a period of 14 days, intravenously in the caudal vein, at a dose of 4 mg·kg^−1.

## CC[C@H](C)[C@@H]([C@@H](CC(=O)N1CCC[C@H]1[C@H](OC)[C@@H](C)C(=O)N[C@H](C)[C@@H](O)c1ccccc1)OC)N(C)C(=O)[C@@H](NC(=O)[C@H](C(C)C)N(C)C(=O)OC(Cc1cn(CCOCCOCCOCCOCCOCCOCCOCCOCCOCCOCCNC(=O)CCCCCN2C(=O)C=CC2=O)nn1)c1ccc(O[C@@H]2OC(CO)[C@@H](O)[C@H](O)C2NC(C)=O)c([N+](=O)[O-])c1)C(C)C (stereo partly shown) [vector 80]
MDA-MB-231 tumor line
  cytotoxicity in the absence versus presence of β-N-acetylglucosaminidase: identical cytotoxicity
KB tumor line
  cytotoxicity in the absence versus presence of β-N-acetylglucosaminidase: identical cytotoxicity
[1]; 4 mg·kg^−1 intravenously, days 21, 35 and 49
  therapeutic activity relative to the control group: significant therapeutic activity
[1]; end of the experiment (day 63), 4 mg·kg^−1 intravenously
  mice with total and lasting regression of the tumor: 3/6
[1]; from day 35, after the first injection, 4 mg·kg^−1 intravenously
  mice that no longer had detectable tumors: 4/6
[1]; initial response, before regrowth at day 42, 4 mg·kg^−1 intravenously
  reduction in the initial tumor size (initial response to treatment): 90%
[1]; until end of protocol (day 63), 4 mg·kg^−1 intravenously, three administrations
  mortality (tolerance): no mortality
